Test results as given in article PMC4372995 (Journal of the American Chemical Society, 2015).
Where two headings read alike, the source gives them in different places.

Tests used:
Assay type in all cases: cell-based
[1] = target: T1, RhlR (Pseudomonas aeruginosa, UniProt P54292); experiment: RhlR reporter antagonism in E. coli, […] vs […] BHL; details: read-out: E. coli / RhlR ^b / antagonism (%) ^g
[2] = target: T1, RhlR; experiment: RhlR reporter antagonism in E. coli, […] vs […] BHL; details: read-out: E. coli / RhlR ^b / antagonism (%) ^g; remark: listed apart in the source
[3] = target: T1, RhlR; experiment: RhlR reporter agonism in E. coli at […]; details: 100 µM

T1 sequence (P54292 whole entry): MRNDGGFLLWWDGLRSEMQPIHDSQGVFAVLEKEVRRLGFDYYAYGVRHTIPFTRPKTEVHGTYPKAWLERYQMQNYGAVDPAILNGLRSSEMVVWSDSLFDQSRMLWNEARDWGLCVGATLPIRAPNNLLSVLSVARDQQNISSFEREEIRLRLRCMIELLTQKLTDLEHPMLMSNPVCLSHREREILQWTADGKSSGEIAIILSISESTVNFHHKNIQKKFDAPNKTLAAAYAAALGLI

O=C(Cc1ccc(I)cc1)N[C@H]1CCOC1=O [C10]
inhibition at 100 µM [1]: 84%

O=C(COc1ccc(I)cc1)N[C@H]1CCOC1=O [E22]
inhibition at 100 µM [2]: 74%

O=C(CCCOc1cccc(Br)c1)NC1CCSC1=O (stereo not drawn) [compound 5, mBTL]
PAO1 / pyocyanin inhibition (%) [3]: 83 % agonism at 100 µM
